Where a name gives a salt, the structure may show the parent alone.
Molecular target: CCR2 (Homo sapiens (Human), UniProt P41597)
Assay: MCP-1 Receptor Binding Assay in THP-1 Cells
Conditions: 0.5 nM 125I labeled MCP-1, 2 hours at 30° C., average of the two most similar values where more than one IC50, read-out: Inhibition of MCP-1 Binding IC50 CCR2 Binding
Protocol: Compounds of the invention were subjected to various representative biological tests. […] MCP-1 Receptor Binding Assay in THP-1 Cells Human monocytic cell line THP-1 cells were obtained from American Type Culture Collection (Manassas, Va., USA). The THP-1 cells were grown in RPMI-1640 (RPMI: Roswell Park Memorial Institute Medium-cell culture growth media) supplemented with 10% fetal bovine serum in a humidified 5% CO2 atmosphere at 37° C. The cell density was maintained between […].
THP-1 (cells were incubated with 0.5 nM ^125I labeled MCP-1 (Perkin-Elmer Life Sciences, Inc. Boston, Mass.) in the presence of varying concentrations of either unlabeled MCP-1 (R & D Systems, Minneapolis, Minn.) or test compound for 2 hours at 30° C. in a 96 well plate. Cells were then harvested onto a filter plate, dried, and 20 μL of Microscint 20 was added to each well. Plates were counted in a TopCount NXT, Microplate Scintillation & Luminescence Counter (Perkin-Elmer Life Sciences, Inc. Boston, Mass.). Blank values (buffer only) were subtracted from all values and drug treated values were compared to vehicle treated values. 1 μM cold MCP-1 was used for nonspecific binding.

CCR2, sequence (P41597 other isoform, or with tags, fused parts or gaps isoform P41597-2): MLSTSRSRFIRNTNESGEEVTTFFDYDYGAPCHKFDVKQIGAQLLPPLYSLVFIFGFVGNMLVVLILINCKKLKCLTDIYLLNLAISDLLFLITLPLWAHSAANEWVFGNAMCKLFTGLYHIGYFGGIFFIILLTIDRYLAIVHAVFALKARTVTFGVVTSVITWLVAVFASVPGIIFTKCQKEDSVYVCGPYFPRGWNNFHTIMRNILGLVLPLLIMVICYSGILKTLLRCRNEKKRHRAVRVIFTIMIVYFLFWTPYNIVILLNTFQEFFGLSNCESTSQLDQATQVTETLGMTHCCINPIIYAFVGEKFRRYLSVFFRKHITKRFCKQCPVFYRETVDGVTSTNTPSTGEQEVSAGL

Row | IC50 [nM] | SMILES
1 | 230 | O=C(O)C(N[C@H]1CC[C@H](c2c[nH]c3ccccc32)CC1)C1CCN(C(=O)Nc2ccc(Cl)c(Cl)c2)CC1 (stereo partly drawn) [Example 27, 2-[4-(1H-Indol-3-yl)-trans-cyclohexylamino]-2-[N-(3,4-dichlorophenyl)-piperidine-1-carboxamid-4-yl]-acetic acid hydrochloride]
2 | 320 | O=C(O)C(N[C@H]1CC[C@@H](c2c[nH]c3ccccc32)CC1)C1CCN(C(=O)Nc2ccc(Cl)c(Cl)c2)CC1 (stereo partly drawn) [Example 28, 2-[4-(1H-Indol-3-yl)-cis-cyclohexylamino]-2-[N-(3,4-dichlorophenyl)-piperidine-1-carboxamid-4-yl]-acetic acid hydrochloride]
3 | 669 | NC(=O)C(NC1CCC(c2c[nH]c3ccccc23)CC1)C1CCN(C(=O)Nc2ccc(F)cc2)CC1 (stereo not shown) [Example 29, 2-[4-(1H-Indol-3-yl)-cyclohexylamino]-2-[N-(4-fluorophenyl)piperidine-1-carboxamid-4-yl]-acetamide]
4 | 710 | CSc1cccc(NC(=O)N2CCC(C(NC3CCC(c4c[nH]c5ccccc45)CC3)C(N)=O)CC2)c1 (stereo not shown) [Example 31, 2-[4-(1H-Indol-3-yl)-cyclohexylamino]-2-[N-(3-{methysulfanyl}phenyl)-piperidine-1-carboxamid-4-yl]-acetamide]
5 | 807 | NC(=O)C(NC1CCC(c2c[nH]c3ccccc23)CC1)C1CCN(C(=O)Nc2ccc(F)c(F)c2)CC1 (stereo not shown) [Example 32, 2-[4-(1H-Indol-3-yl)-cyclohexylamino]-2-[N-(3,4-difluorophenyl)piperidine-1-carboxamid-4-yl]-acetamide]
6 | 960 | NC(=O)C(NC1CCC(c2c[nH]c3ccccc23)CC1)C1CCN(C(=O)/C=C/c2ccc3c(c2)CCCO3)CC1 (stereo not shown) [Example 33, 2-[4-(1H-indol-3-yl)-cyclohexylamino]-2-{1-[(2E)-3-(3,4-dihydro-2H-chromen-6-yl)prop-2-enoyl]piperidin-4-yl}acetamide]
7 | 40 | NC(=O)C(NC1CCC(c2c[nH]c3ccncc23)CC1)C1CCN(C(=O)Nc2ccc(Cl)c(Cl)c2)CC1 (stereo not shown) [Example 40, 2-[4-(1H-pyrrolo[3,2-c]pyridin-3-yl)cyclohexyl]amino-2-[N-(3,4-dichlorophenyl)piperidine-1-carboxamid-4-yl]-acetamide]
8 | 83 | NC(=O)C(N[C@H]1CC[C@H](c2c[nH]c3ccncc32)CC1)C1CCN(C(=O)/C=C/c2cc(F)c(F)c(F)c2)CC1 (stereo partly drawn) [Example 41, R,S-2-[trans-4-(1H-pyrrolo[3,2-c]pyridin-3-yl)cyclohexyl]amino-2-[1-(trans-3,4,5-trifluorocinnamoyl)-piperidin-4-yl]-acetamide]
9 | 87 | NC(=O)C(NC1CCC(c2c[nH]c3cccnc23)CC1)C1CCN(C(=O)Nc2ccc(Cl)c(Cl)c2)CC1 (stereo not drawn) [Example 42, 2-[trans-4-(1H-pyrrolo[3,2-b]pyridin-3-yl)cyclohexyl]amino-2-[N-(3,4-dichlorophenyl)piperidine-1-carboxamid-4-yl]-acetamide]
10 | 122 | NC(=O)C(N[C@H]1CC[C@H](c2c[nH]c3cccnc32)CC1)C1CCN(C(=O)/C=C/c2ccccc2)CC1 (stereo partly drawn) [Example 43, R,S-2-[trans-4-(1H-pyrrolo[3,2-b]pyridin-3-yl)cyclohexyl]amino-2-[1-(trans-cinnamoyl)-piperidin-4-yl]-acetamide]
11 | 132 | NC(=O)C(NC1CCC(c2c[nH]c3ncccc23)CC1)C1CCN(C(=O)/C=C/c2cc(F)c(F)c(F)c2)CC1 (stereo not drawn) [Example 44, 2-[4-(1H-pyrrolo[2,3-b]pyridin-3-yl)cyclohexyl]amino-2-[1-(trans-3,4,5-trifluorocinnamoyl)-piperidin-4-yl]-acetamide]
12 | 130 | NC(=O)C(NC1CCC(c2c[nH]c3cccnc23)CC1)C1CCN(C(=O)/C=C/c2cc(F)cc(F)c2)CC1 (stereo not drawn) [Example 45, R,S-2-[trans-4-(1H-pyrrolo[3,2-b]pyridin-3-yl)cyclohexyl]amino-2-[1-(trans-3,5-difluorocinnamoyl)-piperidin-4-yl]-acetamide]
13 | 330 | NC(=O)C(NC1CCC(c2c[nH]c3ncccc23)CC1)C1CCN(C(=O)/C=C/c2cc(F)cc(F)c2)CC1 (stereo not drawn) [Example 46, R,S-2-[4-(1H-pyrrolo[2,3-b]pyridin-3-yl)cyclohexyl]amino-2-[1-(trans-3,5-difluorocinnamoyl)-piperidin-4-yl]-acetamide]
14 | 590 | Cc1cccc(NC(=O)N2CCC(C(NC3CCC(c4c[nH]c5cccnc45)CC3)C(N)=O)CC2)c1 (stereo not shown) [Example 48, 2-[4-(1H-pyrrolo[3,2-b]pyridin-3-yl)cyclohexyl]amino-2-[N-(3-tolyl)piperidine-1-carboxamid-4-yl]-acetamide]
15 | 635 | COc1ccc(C2CCC(NC(C(N)=O)C3CCN(C(=O)/C=C/c4cc(F)c(F)c(F)c4)CC3)CC2)cn1 (stereo not drawn) [Example 50, 2-[4-(6-methoxypyridin-3-yl)cyclohexyl]amino-2-[1-(trans-3,4,5-trifluorocinnamoyl)-piperidin-4-yl]-acetamide]
16 | 665 | O=C(NO)C(NC1CCC(c2c[nH]c3ccccc23)CC1)C1CCN(C(=O)/C=C/c2cc(F)c(F)c(F)c2)CC1 (stereo not drawn) [Example 51, N-Hydroxy-2-{[4-(1H-Indol-3-yl)-cyclohexylamino]-2-[1-(trans-3,4,5-trifluorocinnamoyl)-piperidin-4-yl]}-acetamide]
17 | 950 | NC(=O)C(N[C@H]1CC[C@H](C2CNc3ccccc32)CC1)C1CCN(C(=O)/C=C/c2cc(F)c(F)c(F)c2)CC1 (stereo partly drawn) [Example 52, 2-{[4-(2,3-dihydro-1H-indol-3-yl)-trans-cyclohexylamino]-2-[1-(trans-3,4,5-trifluorocinnamoyl)-piperidin-4-yl]}-acetamide]
18 | 984 | CNC(=O)C(NC1CCC(c2c[nH]c3ccccc23)CC1)C1CCN(C(=O)/C=C/c2cc(F)c(F)c(F)c2)CC1 (stereo not drawn) [Example 53, N-Methyl-2-{[4-(1H-Indol-3-yl)-cyclohexylamino]-2-[1-(trans-3,4,5-trifluorocinnamoyl)-piperidin-4-yl]}-acetamide]
19 | 981 | CN(C)C(=O)C(NC1CCC(c2c[nH]c3ccccc23)CC1)C1CCN(C(=O)/C=C/c2cc(F)c(F)c(F)c2)CC1 (stereo not drawn) [Example 54, N,N-Dimethyl-2-{[4-(1H-Indol-3-yl)-cyclohexylamino]-2-[1-(trans-3,4,5-trifluorocinnamoyl)-piperidin-4-yl]}-acetamide]

Row | SMILES | IC50 [nM]
20 | NC(=O)C(NC1CCC(c2c[nH]c3ccccc23)CC1)C1CCN(C(=O)Nc2cc(F)cc(F)c2)CC1 (stereo not shown) [Example 30, 2-[4-(1H-Indol-3-yl)-cyclohexylamino]-2-[N-(3,5-difluorophenyl)piperidine-1-carboxamid-4-yl]-acetamide] | 708
21 | COC(=O)C(NC1CCC(c2c[nH]c3ccccc23)CC1)C1CCN(C(=O)/C=C/c2cc(F)c(F)c(F)c2)CC1 (stereo not drawn) [Example 49a, Methyl 2-[4-(1H-indol-3-yl)-trans-cyclohexylamino]-2-[1-(trans-3,4,5-trifluorocinnamoyl)piperidin-4-yl]-acetate] | 410
22 | COC(=O)C(NC1CCC(c2c[nH]c3ccccc23)CC1)C1CCN(C(=O)/C=C/c2cc(F)c(F)c(F)c2)CC1 (stereo not shown) [Example 49b] | 750
